This is an account of results in ChEMBL document CHEMBL1142222, “A-803467, a potent and selective Nav1.8 sodium channel blocker, attenuates neuropathic and inflammatory pain in the rat” (Proc Natl Acad Sci U S A, 2007).

The structures appear in SMILES notation.

The target of assay [1] is Sodium channel protein type 10 subunit alpha (Rattus norvegicus, UniProt Q62968). As to the kind of experiment: Inhibition of Nav1.8 channel in rat dorsal root ganglion neurons assessed as blockade of TTX-R current by patch clamp method. Format: tissue-based.
Another assay relates to Rattus norvegicus. Kind of assay: Analgesic activity in ip dosed rat chronic constriction injury model of mechanical allodynia. Format: functional.

Chain of Sodium channel protein type 10 subunit alpha (Q62968 whole entry): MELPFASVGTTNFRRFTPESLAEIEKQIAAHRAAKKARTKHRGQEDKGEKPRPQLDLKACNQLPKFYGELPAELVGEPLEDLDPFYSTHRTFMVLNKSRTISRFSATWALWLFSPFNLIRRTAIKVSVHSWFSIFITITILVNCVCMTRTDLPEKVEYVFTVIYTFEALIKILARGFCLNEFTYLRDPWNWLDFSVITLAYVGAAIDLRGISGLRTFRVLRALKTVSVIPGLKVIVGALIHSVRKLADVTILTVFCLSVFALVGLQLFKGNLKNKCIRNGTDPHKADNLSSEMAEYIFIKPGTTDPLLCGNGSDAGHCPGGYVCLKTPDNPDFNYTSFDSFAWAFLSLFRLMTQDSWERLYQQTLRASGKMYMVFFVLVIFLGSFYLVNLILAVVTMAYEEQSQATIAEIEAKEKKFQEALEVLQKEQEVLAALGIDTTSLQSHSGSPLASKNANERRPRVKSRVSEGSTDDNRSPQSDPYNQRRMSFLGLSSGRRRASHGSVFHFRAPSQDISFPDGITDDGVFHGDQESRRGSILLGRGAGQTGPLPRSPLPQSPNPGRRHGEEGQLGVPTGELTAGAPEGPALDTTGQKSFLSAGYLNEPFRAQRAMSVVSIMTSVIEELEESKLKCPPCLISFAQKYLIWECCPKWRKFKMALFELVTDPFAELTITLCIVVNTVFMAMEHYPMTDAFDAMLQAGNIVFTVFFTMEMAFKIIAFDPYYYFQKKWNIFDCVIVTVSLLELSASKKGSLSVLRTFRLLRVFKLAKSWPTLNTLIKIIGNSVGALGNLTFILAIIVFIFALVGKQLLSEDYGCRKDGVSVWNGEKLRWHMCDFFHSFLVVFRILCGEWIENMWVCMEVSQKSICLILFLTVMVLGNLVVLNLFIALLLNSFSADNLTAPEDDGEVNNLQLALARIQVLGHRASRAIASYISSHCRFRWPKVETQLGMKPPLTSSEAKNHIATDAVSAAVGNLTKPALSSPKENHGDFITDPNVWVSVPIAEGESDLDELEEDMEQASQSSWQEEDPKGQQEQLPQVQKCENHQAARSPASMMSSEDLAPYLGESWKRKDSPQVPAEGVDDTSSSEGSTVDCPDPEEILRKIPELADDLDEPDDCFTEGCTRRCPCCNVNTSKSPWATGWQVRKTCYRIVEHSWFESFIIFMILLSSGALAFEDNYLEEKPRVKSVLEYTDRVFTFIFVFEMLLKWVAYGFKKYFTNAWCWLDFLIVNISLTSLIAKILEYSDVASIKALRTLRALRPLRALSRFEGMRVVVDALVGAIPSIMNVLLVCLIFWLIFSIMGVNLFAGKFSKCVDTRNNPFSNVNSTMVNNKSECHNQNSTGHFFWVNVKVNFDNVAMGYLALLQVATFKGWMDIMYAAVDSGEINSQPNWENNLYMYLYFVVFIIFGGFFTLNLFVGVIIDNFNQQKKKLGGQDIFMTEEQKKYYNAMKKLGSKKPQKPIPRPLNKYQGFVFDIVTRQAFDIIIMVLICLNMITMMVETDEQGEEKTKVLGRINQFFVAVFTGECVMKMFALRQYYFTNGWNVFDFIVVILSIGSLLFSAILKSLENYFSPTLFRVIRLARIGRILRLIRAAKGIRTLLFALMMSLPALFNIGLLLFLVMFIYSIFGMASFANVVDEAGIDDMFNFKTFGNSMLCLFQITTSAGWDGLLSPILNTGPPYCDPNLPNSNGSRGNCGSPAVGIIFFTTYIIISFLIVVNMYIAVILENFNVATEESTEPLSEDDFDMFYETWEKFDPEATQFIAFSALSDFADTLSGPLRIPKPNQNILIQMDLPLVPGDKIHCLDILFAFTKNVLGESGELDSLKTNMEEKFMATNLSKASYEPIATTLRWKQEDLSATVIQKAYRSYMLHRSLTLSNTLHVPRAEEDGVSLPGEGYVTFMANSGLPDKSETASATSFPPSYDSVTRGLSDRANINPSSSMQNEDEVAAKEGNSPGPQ

As to `Cc1cccc(C)c1OCC(C)N` (stereo not drawn) [MEXILETINE], the concentration for half-maximal inhibition (IC50) in assay [1] was greater than 30 µM.
Take `NCC1(CC(=O)O)CCCCC1` [GABAPENTIN]: the 50% effective dose (ED50) in the assay on Rattus norvegicus amounted to 40 mg/kg.
The same measure, in the same setting: to `Nc1nnc(-c2cccc(Cl)c2Cl)c(N)n1` [LAMOTRIGINE] belongs 20 mg/kg.
